BigSolDB 2.1

Settings: in water

SMILES | solubility (mole fraction) (283.65 K) | solubility (mole fraction) (298.15 K) | solubility (mole fraction) (307.15 K) | solubility (mole fraction) (309.15 K) | solubility (mole fraction) (311.15 K) | solubility (mole fraction) (315.15 K) | solubility (mole fraction) (317.15 K) | solubility (mole fraction) (318.15 K) | solubility (mole fraction) (320.15 K) | solubility (mole fraction) (323.15 K) | solubility (mole fraction) (327.15 K) | solubility (mole fraction) (279.15 K) | solubility (mole fraction) (281.15 K) | solubility (mole fraction) (284.15 K) | solubility (mole fraction) (289.15 K) | solubility (mole fraction) (291.15 K) | solubility (mole fraction) (293.15 K) | solubility (mole fraction) (302.15 K) | solubility (mole fraction) (304.15 K) | solubility (mole fraction) (310.15 K) | also measured
O=C(O)c1ccccc1C(=O)O | 0.000284 | 0.000761 | 0.00107 | 0.00119 | 0.00126 | 0.00151 | 0.00164 | 0.00164 | 0.00205 | 0.00223 | 0.00248 |  |  |  |  |  |  |  |  |  | solubility (mole fraction) (296.15 K): 0.000709; solubility (mole fraction) (302.65 K): 0.000935; solubility (mole fraction) (319.15 K): 0.00181; solubility (mole fraction) (334.15 K): 0.00323; solubility (mole fraction) (338.15 K): 0.004
O=C(O)CCCC(=O)O |  | 0.16 | 0.216 |  |  |  | 0.287 | 0.289 |  | 0.327 |  | 0.0734 | 0.0784 | 0.085 | 0.118 | 0.129 | 0.139 | 0.189 | 0.2 | 0.236 | solubility (mole fraction) (286.15 K): 0.101; solubility (mole fraction) (312.15 K): 0.249; solubility (mole fraction) (316.15 K): 0.281; solubility (mole fraction) (320.55 K): 0.308; solubility (mole fraction) (327.65 K): 0.355; solubility (mole fraction) (329.15 K): 0.398; solubility (mole fraction) (332.15 K): 0.419; solubility (mole fraction) (334.25 K): 0.424; solubility (mole fraction) (336.15 K): 0.478; solubility (mole fraction) (342.15 K): 0.537
O=C(O)c1ccco1 | 0.00431 | 0.00796 | 0.0125 | 0.013 | 0.0154 | 0.0231 | 0.0257 |  |  | 0.0513 | 0.0722 | 0.00411 |  | 0.00462 | 0.00483 |  |  | 0.0099 |  |  | solubility (mole fraction) (280.15 K): 0.00414; solubility (mole fraction) (285.15 K): 0.00471; solubility (mole fraction) (294.15 K): 0.00633; solubility (mole fraction) (301.15 K): 0.00886; solubility (mole fraction) (319.8 K): 0.031; solubility (mole fraction) (325.15 K): 0.0664; solubility (mole fraction) (327.65 K): 0.074; solubility (mole fraction) (328.15 K): 0.0907; solubility (mole fraction) (330.65 K): 0.128; solubility (mole fraction) (333.2 K): 0.144; solubility (mole fraction) (334.55 K): 0.144; solubility (mole fraction) (336.15 K): 0.199; solubility (mole fraction) (341.15 K): 0.262
O=C(O)CCCCCC(=O)O |  | 0.00756 | 0.0113 |  |  |  |  | 0.0464 |  | 0.0776 |  | 0.00204 | 0.00211 | 0.00245 | 0.00417 | 0.00474 | 0.00568 | 0.00906 | 0.00994 | 0.0132 | solubility (mole fraction) (297.15 K): 0.00738; solubility (mole fraction) (313.15 K): 0.0186; solubility (mole fraction) (316.15 K): 0.0364; solubility (mole fraction) (320.65 K): 0.0584; solubility (mole fraction) (327.98 K): 0.14; solubility (mole fraction) (333.15 K): 0.189; solubility (mole fraction) (337.65 K): 0.261; solubility (mole fraction) (342.15 K): 0.328
O=C(O)c1ccccc1O |  | 0.000333 | 0.000441 |  |  |  | 0.000572 | 0.000677 | 0.000672 | 0.000742 | 0.000934 |  |  |  |  |  |  |  |  |  | solubility (mole fraction) (283.15 K): 0.0002; solubility (mole fraction) (324.15 K): 0.000785; solubility (mole fraction) (325.15 K): 0.000847; solubility (mole fraction) (328.15 K): 0.000964; solubility (mole fraction) (330.65 K): 0.00111; solubility (mole fraction) (334.65 K): 0.00131; solubility (mole fraction) (339.15 K): 0.00149
